From patent US4873334A, “4,7-dihydropyrazolo(3,4-b) pyridine derivatives” (Shionogi & Co., Ltd., priority 1982, dated 1989)

Tests used:
[1] = system: Spontaneously Hypertensive Rats; assay: Antihypertensive action, tail-cuff systolic pressure in unanaesthetized SHR after i.p. administration; type: in vivo, Spontaneously Hypertensive Rats (female); details: 3 mg/kg intraperitoneally
Procedure: Female Spontaneously Hypertensive Rats(hereinafter referred to as SHR) with 160 mmHg of systolic pressure were employed without anaesthetization. The systolic pressure was, after SHRs were kept warm at 50° C. for 2 to 3 minutes, bloodlessly measured by the tail-cuff method [Japan J. Pharmacol., 28, 617 (1978)] using a Physiograph and an Electrosphygmomanometer (DMP-4B, PE-300, Narco Biosystems, Inc., Houston). Each compound was intraperitoneally administered to SHR at a dose of 3 mg per kilogramm. Antihypertensive action is shown in a maximal decrease of blood pressure, i.e. a maximum difference between systolic pressures after and before the administration of the test compound; along with which the duration period is also shown.

[2] = system: heart (coronary perfusate flow); assay: Coronary vasodilating action, perfusion flow change in isolated Langendorff-perfused heart; set-up: species or system Guinea pigs
Procedure: (§1) Guinea pigs with 400-800g of body weight were hit strongly on their heads and the cartoid artery of each Guinea pigs was cut down in order to make them bloodless. The heart was isolated and perfused with at a constant pressure (50 cm H2 O) by the Langendorff method [Basic Pharmacology & Therapeutics, 9(4), 181 (1981)]. Krebs-Ringer bicarbonate solution (27° C.) containing 0.5% defibrinated blood was employed as a perfusate, into which a mixed gas of 95% oxygen and 5% carbon dioxide was continuously introduced. The flowing perfusate was led into a drop counter, and the changes of the flow i.e. increase and decrease are regarded as the respective indications for coronary vasodilation and vasoconstriction. The isomeric contraction of apex and the number of drops of the coronary perfusate were recorded on a Recticorder (RJG 3006, Nihon Koden) by way of an F-D Pick-up (SB-IT, Nihon Koden). […] Coronary vasodilating action is shown in changes of the quantiy of the perfusate, and systole inhibitory action is shown in those of inotropic tension.

[3] = system: heart (contraction of apex); assay: Systole inhibitory action / negative inotropic action, contractile tension of isolated Langendorff-perfused heart; set-up: species or system Guinea pigs
Procedure: as §1

in vivo = details: mouse, female DS mice, intravenous
Procedure: In female DS mice (body weight: about 20g), LD50 value after the intravenous administration of the compounds was calculated by the Brownlee's up and down method [J. Am. Sat. As., 48, 262 (1953)].

Structure (SMILES) | Duration of Effect ([1]; Table 1 (Part 2)) | Maximum decrease in systolic pressure ([1]; Table 1 (Part 2)) | Perfusion Flow Change ([2]; 0.1 μg, Table 1 (Part 2)) | Change of Contractile Tension ([3]; 0.1 μg, Table 1 (Part 2)) | Duration of Effect ([1]; Table 1 (Part 1)) | Maximum Hypotension ([1]; Table 1 (Part 1)) | Perfusion Flow Change ([2]; 0.1 μg, Table 2 (Part 1)) | Perfusion Flow Change ([2]; 1 μg, Table 2 (Part 1)) | Perfusion Flow Change ([2]; 10 μg, Table 2 (Part 1)) | Change of Contractile Tension ([3]; 0.1 μg, Table 3 (Part 1)) | Change of Contractile Tension ([3]; 1 μg, Table 3 (Part 1)) | Change of Contractile Tension ([3]; 10 μg, Table 3 (Part 1)) | LD50 (in vivo)
CC1=C(C(=O)OCCOc2ccccc2)C(c2ccccc2[N+](=O)[O-])c2c(C3CCCC3)nn(C)c2N1 (centres unmarked) [(I), 2-Phenoxyethyl 3-cyclopentyl-1,6-dimethyl-4-(2-nitrophenyl)-4,7-dihydropyrazolo[3,4-b]pyridine-5-carboxylate] | 6 h | 74 mmHg | +43% | 0% |  |  |  |  |  |  |  |  | 
CCOC(=O)C1=C(C)Nc2c(c(C3CCCC3)nn2C)C1c1cccc([N+](=O)[O-])c1.Cl (centres unmarked) [(C-1), Ethyl 3-cyclopentyl-1,6-dimethyl-4-(3-nitrophenyl)-4,7-dihydropyrazolo[3,4-b]pyridine-5-carboxylate hydrochloride] |  |  |  |  | 14 h | 42 mmHg | +40% | +79% | +93% | 0% | 0% | 0% | 50.6 mg/kg
CC1=C(C(=O)OCCc2ccc(Cl)cc2)C(c2cccc([N+](=O)[O-])c2)c2c(C3CCCC3)nn(C)c2N1 (centres unmarked) [(L), 4-Chlorophenethyl 3-cyclopentyl-1,6-dimethyl-4-(3-nitrophenyl)-4,7-dihydropyrazolo[3,4-b]pyridine-5-carboxylate] | 6 h | 74 mmHg |  |  |  |  |  |  |  |  |  |  | 
COc1ccc(CCOC(=O)C2=C(C)Nc3c(c(C4CCCC4)nn3C)C2c2cccc([N+](=O)[O-])c2)cc1OC (centres unmarked) [(M), 3,4-Dimethoxyphenethyl 3-cyclopentyl-1,6-dimethyl-4-(3-nitrophenyl)-4,7-dihydropyrazolo[3,4-b]pyridine-5-carboxylate] | 6 h | 86 mmHg |  |  |  |  |  |  |  |  |  |  | 
CC1=C(C(=O)OCCCOC(C)C)C(c2ccccc2[N+](=O)[O-])c2c(C3CCCC3)nn(C)c2N1 (centres unmarked) [(F), 3-Isopropoxypropyl 3-cyclopentyl-1,6-dimethyl-4-(2-nitrophenyl)-4,7-dihydropyrazolo[3,4-b]pyridine-5-carboxylate] | 6 h | 53 mmHg | +65% | 0% |  |  |  |  |  |  |  |  | 
COCCOC(=O)C1=C(C)Nc2c(c(C3CCCC3)nn2C)C1c1cccc([N+](=O)[O-])c1 (centres unmarked) [(C-2), 2-Methoxyethyl 3-cyclopentyl-1,6-dimethyl-4-(3-nitrophenyl)-4,7-dihydropyrazolo[3,4-b]pyridine-5-carboxylate] | 6 h | 36 mmHg | +15% | 0% |  |  |  |  |  |  |  |  | 
CC1=C(C(=O)OCCOC2CCCC2)C(c2ccccc2[N+](=O)[O-])c2c(C3CCCC3)nn(C)c2N1 (centres unmarked) [(G), 2-Cyclopentyloxyethyl 3-cyclopentyl-1,6-dimethyl-4-(2-nitrophenyl)-4,7-dihydropyrazolo[3,4-b]pyridine-5-carboxylate] | 6 h | 53 mmHg | +67% | 0% |  |  |  |  |  |  |  |  | 
COCCOC(=O)C1=C(C)Nc2c(c(C3CCCCC3)nn2C)C1c1ccccc1[N+](=O)[O-] (centres unmarked) [(D), 2-Methoxyethyl 3-cyclohexyl-1,6-dimethyl-4-(2-nitrophenyl)-4,7-dihydropyrazolo[3,4-b]pyridine-5-carboxylate] | 6 h | 65 mmHg | +32% | 0% |  |  |  |  |  |  |  |  | 
CC1=C(C(=O)OCC2CCCO2)C(c2ccccc2[N+](=O)[O-])c2c(C3CCCC3)nn(C)c2N1 (centres unmarked) [(H), 2-Tetrahydrofurylmethyl 3-cyclopentyl-1,6-dimethyl-4-(2-nitrophenyl)-4,7-dihydropyrazolo[3,4-b]pyridine-5-carboxylate] |  | 0 mmHg | +34% | 0% |  |  |  |  |  |  |  |  | 
CC1=C(C(=O)OCCc2ccccc2)C(c2ccccc2[N+](=O)[O-])c2c(C3CCCC3)nn(C)c2N1 (centres unmarked) [(K), Phenethyl 3-cyclopentyl-1,6-dimethyl-4-(2-nitrophenyl)-4,7-dihydropyrazolo[3,4-b]pyridine-5-carboxylate] | 6 h | 75 mmHg | +63% | 0% |  |  |  |  |  |  |  |  | 
COC(=O)C1=C(C)Nc2c(c(C3CCCC3)nn2C)C1c1cccc([N+](=O)[O-])c1 (centres unmarked) [(B-1), Methyl 3-cyclopentyl-1,6-dimethyl-4-(3-nitrophenyl)-4,7-dihydropyrazolo[3,4-b]pyridine-5-carboxylate] |  |  |  |  | 16 h | 66 mmHg | +26% | +73% | +180% | 0% | 0% | 0% | 31.5 mg/kg
COC(=O)C1=C(C)NC(C)=C(C(=O)OC)C1c1ccccc1[N+](=O)[O-] [(A), Nifedipine, reference compound] | 6 h | 45 mmHg | +38% | -15% | 6 h | 45 mmHg | +38% | +100% |  | -15% | -57% |  | 
CSCCOC(=O)C1=C(C)Nc2c(c(C3CCCC3)nn2C)C1c1ccccc1[N+](=O)[O-] (centres unmarked) [(J), 2-Methylthioethyl 3-cyclopentyl-1,6-dimethyl-4-(2-nitrophenyl)-4,7-dihydropyrazolo[3,4-b]pyridine-5-carboxylate] | 6 h | 20 mmHg | +68% | 0% |  |  |  |  |  |  |  |  | 
COCCOC(=O)C1=C(C)Nc2c(c(CC3CCCC3)nn2C)C1c1ccccc1[N+](=O)[O-] (centres unmarked) [(E), 2-Methoxyethyl 3-cyclopentylmethyl-1,6-dimethyl-4-(2-nitrophenyl)-4,7-dihydropyrazolo[3,4-b]pyridine-5-carboxylate] | 6 h | 26 mmHg | +20% | 0% |  |  |  |  |  |  |  |  | 
COCCOC(=O)C1=C(C)Nc2c(c(C3CCCC3)nn2C)C1c1ccccc1[N+](=O)[O-] (centres unmarked) [(B-2), 2-Methoxyethyl 3-cyclopentyl-1,6-dimethyl-4-(2-nitrophenyl)-4,7-dihydropyrazolo[3,4-b]pyridine-5-carboxylate] | 6 h | 45 mmHg | +28% | 0% |  |  |  |  |  |  |  |  | 
